± gives the expanded uncertainty stated by the source.
Columns and labels:
[1] = xn = mol fraction of the nth substance listed; details: 93.2 kPa, Liquid, Vibrating tube method, x1 = 1
[2] = 93.2 kPa, Liquid, Vibrating tube method

mass density ([1]; 293.15 K)	mass density ([1]; 298.15 K)	mass density ([1]; 303.15 K)	mass density ([1]; 308.15 K)	mass density ([2]; 293.15 K)	mass density ([2]; 298.15 K)	mass density ([2]; 303.15 K)	mass density ([2]; 308.15 K)	SMILES
782.01 ± 2 kg/m3	776.61 ± 2 kg/m3	771.2 ± 2 kg/m3	765.75 ± 2 kg/m3	–	–	–	–	CC#N [acetonitrile] + CCCCN
–	–	–	–	782.01 ± 2 kg/m3	776.61 ± 2 kg/m3	771.2 ± 2 kg/m3	765.75 ± 2 kg/m3	CC#N [acetonitrile]
782.01 ± 2 kg/m3	776.61 ± 2 kg/m3	771.2 ± 2 kg/m3	765.75 ± 2 kg/m3	–	–	–	–	CC#N [acetonitrile] + CCN(CC)CC
782.01 ± 2 kg/m3	776.61 ± 2 kg/m3	771.2 ± 2 kg/m3	765.75 ± 2 kg/m3	–	–	–	–	CC#N [acetonitrile] + CCCCNCCCC
–	–	–	–	759.7 ± 2 kg/m3	755.61 ± 2 kg/m3	751.5 ± 2 kg/m3	747.38 ± 2 kg/m3	CCCCNCCCC [dibutylamine]
–	–	–	–	738.18 ± 2 kg/m3	733.64 ± 2 kg/m3	729.07 ± 2 kg/m3	724.48 ± 2 kg/m3	CCCNCCC [dipropylamine]
–	–	–	–	692.06 ± 2 kg/m3	686.65 ± 2 kg/m3	681.18 ± 2 kg/m3	675.66 ± 2 kg/m3	CC(C)(C)N [2-methyl-2-propanamine]
–	–	–	–	727.7 ± 2 kg/m3	723.02 ± 2 kg/m3	718.36 ± 2 kg/m3	713.65 ± 2 kg/m3	CCN(CC)CC [triethylamine]
–	–	–	–	737.12 ± 2 kg/m3	732.33 ± 2 kg/m3	727.51 ± 2 kg/m3	722.66 ± 2 kg/m3	CCCCN [1-butanamine]
–	–	–	–	716.48 ± 2 kg/m3	711.21 ± 2 kg/m3	705.88 ± 2 kg/m3	700.62 ± 2 kg/m3	CCCN [propan-1-amine]
782.01 ± 2 kg/m3	776.61 ± 2 kg/m3	771.2 ± 2 kg/m3	765.75 ± 2 kg/m3	–	–	–	–	CC#N [acetonitrile] + CCCN
782.01 ± 2 kg/m3	776.61 ± 2 kg/m3	771.2 ± 2 kg/m3	765.75 ± 2 kg/m3	–	–	–	–	CC#N [acetonitrile] + CCCNCCC
782.01 ± 2 kg/m3	776.61 ± 2 kg/m3	771.2 ± 2 kg/m3	765.75 ± 2 kg/m3	–	–	–	–	CC#N [acetonitrile] + CC(C)(C)N
